What was measured:
[1] = test system: MOLT-4; experiment: Growth inhibition of human MOLT4 cells after 5 days by MTT assay; assay type: cell-based; conditions: MOLT-4, 120 h
[2] = test system: Human immunodeficiency virus 1; experiment: Growth inhibition of HIV1 3B infected human MOLT4 cells after 5 days by MTT assay; assay type: functional, organism-based; conditions: Human immunodeficiency virus 1, 3B, MOLT-4, 120 h

| Structure (SMILES) | IC50 [1] [µM] | IC50 [2] [µM] |
| --- | --- | --- |
| CCCCCCCCCCCCOCCOCCOCCOCCO [LAURETH 4] | 118 | 37 |
| CCCCCCCCCCCCOCCOCCOCCOCCOCCOCCOCCOCCO | 59 | 29 |
| CCCCCCCCCCCCCC(=O)OC[C@H](COP(=O)([O-])OCC[N+](C)(C)C)OC(=O)CCCCCCCCCCCCC [DIMYRISTOYLPHOSPHATIDYLCHOLINE] | 293 | 50 |

More lines, main results first:

| IC50 [1] [µM] | Structure (SMILES) | IC50 [2] [µM] |
| --- | --- | --- |
| 121 | CCCCCCCCCCCCOCCOCCOCCOCCOCCOCCOCCOCCOCCOCCOCCOCCOCCOCCOCCOCCOCCOCCOCCOCCOCCO | 34 |
| 190 | CCCCCCCCCCCCOCCOCCOCCOCCOCCOCCOCCOCCOCCOCCOCCOCCOCCOCCOCCOCCOCCOCCOCCOCCOCCOCCOCCO | 47 |
| 221 | CCCCCCCCCCCCOCCOCCOCCOCCOCCOCCOCCOCCOCCOCCOCCOCCOCCOCCOCCOCCOCCOCCOCCOCCOCCOCCOCCOCCOCCO | 40 |
| 41 | CCCCCCCCCCCCOCCOCCOCCOCCOCCOCCOCCOCCOCCOCCO | 26 |

Source: ChEMBL document CHEMBL1156591, “Selective inhibitory effects of hybrid liposomes on the growth of HIV type 1-infected cells in vitro” (Bioorg Med Chem Lett, 2008)
